Test results from patent US20050150764A1 (priority 2001, published 2005).

What was measured:
[1] = tested on: adult Musca domestica, strain: Reichswald (OP, SP, carbamate resistant); test: Test with flies (Musca domestica) (Example H); format: in vivo
Description: Test with Flies (Musca domestica)
(§1) 20 mg of active substance are dissolved in 1 ml of dimethyl sulphoxide; lower concentrations are prepared by dilution with distilled water.
[…] After the filter disks have dried, 25 test organisms are transferred to the Petri dishes and covered.
The activity of the active compound preparation is determined after 1, 3, 5, 24 and 48 hours. 100% means that all the flies were killed; 0% means that none of the flies was killed.

[2] = tested on: caterpillars of the army worm (Spodoptera frugiperda); test: Spodoptera frugiperda test (Example E); format: in vivo; details: 1000 ppm, after 7 days, cabbage leaves dipped
Description: (§2) Spodoptera frugiperda Test [table] To produce a suitable preparation of active compound, 1 part by weight of active compound is mixed with the stated amounts of solvent and emulsifier, and the concentrate is diluted with emulsifier-containing water to the desired concentration. Cabbage leaves (Brassica oleracea) are treated by being dipped into the preparation of active compound at the desired concentration and are populated with caterpillars of the army worm (Spodoptera frugiperda) while the leaves are still moist. After the desired period of time, the kill in % is determined. 100% means that all of the caterpillars have been killed: 0% denotes that no caterpillars have been killed.

[3] = tested on: larvae of the mustard beetle (Phaedon cochleariae); test: Phaedon larvae test (Example B); format: in vivo; details: 1000 ppm, after 7 days, cabbage leaves dipped
Description: as §2, with “Phaedon larvae Test” for “Spodoptera frugiperda Test”, “with larvae” for “with caterpillars”, “the mustard beetle (Phaedon cochleariae)” for “the army worm (Spodoptera frugiperda)”, “the beetle larvae” for “the caterpillars”, “no beetle larvae” for “no caterpillars”

Lucilia cuprina larvae = test: Blowfly larvae test/development inhibition activity (Example I); format: in vivo; details: 100% = no flies hatched
Description: Blowfly Larvae Test/Development Inhibition Activity
as §1
About 20 Lucilia cuprina larvae are introduced into a test tube containing 1 cm^3 of horse meat and 0.5 ml of the test preparation of active compound. The efficacy of the active compound preparation is determined after 24 and 48 hours. The test tubes are transferred to beakers whose bases are covered with sand. After 2 more days, the test tubes are removed and the pupae are counted.
The activity of the active compound preparation is assessed in accordance with the number of flies which have hatched following 1.5 times the development period of an untreated control. 100% means that no flies have hatched; 0% means that all of the flies hatched normally.

[4] = Concentration 4 μg fly, reading time not given
[5] = Concentration 20 μg fly, reading time not given
[6] = Concentration 100 μg fly, reading time not stated (1, 3, 5, 24 and 48 hours in method)

O=C(Nc1ccc(Cl)cc1)N1CCC(n2cc(Cl)cn2)C(c2cccc(C(F)(F)F)c2)=N1 (stereo not shown) [Example 2]
% Activity/Kill [1, 4]: 0%
% Activity/Kill [1, 5]: 30%
% Activity/Kill [1, 6]: 95%
logP (pH 2)/ m.p. [° C.] (logP part): 4.60/199
kill [2]: 100%
kill [3]: 100%
% Activity/Kill (Lucilia cuprina larvae; Concentration 4 ppm): 0%
% Activity/Kill (Lucilia cuprina larvae; Concentration 20 ppm): 100%
% Activity/Kill (Lucilia cuprina larvae; Concentration 100 ppm): 100%

O=C(Nc1ccc(OC(F)(F)F)cc1)N1CCC(n2cc(Cl)cn2)C(c2cccc(C(F)(F)F)c2)=N1 (stereo not shown) [Example 3]
% Activity/Kill [1, 4]: 0%
% Activity/Kill [1, 5]: 50%
% Activity/Kill [1, 6]: 95%
logP (pH 2)/ m.p. [° C.] (logP part): 4.83/192
kill [2]: 100%
kill [3]: 100%
% Activity/Kill (Lucilia cuprina larvae; Concentration 4 ppm): 0%
% Activity/Kill (Lucilia cuprina larvae; Concentration 20 ppm): 100%
% Activity/Kill (Lucilia cuprina larvae; Concentration 100 ppm): 100%

O=C(Nc1ccc(C(F)(F)F)cc1)N1CCC(n2cc(Cl)cn2)C(c2cccc(F)c2)=N1 (stereo not shown) [Example 4]
logP (pH 2)/ m.p. [° C.] (logP part): 4.37/194
kill [2]: 100%
kill [3]: 100%

O=C(Nc1ccc(Cl)cc1)N1CCC(n2cc(Cl)cn2)C(c2cccc(F)c2)=N1 (stereo not shown) [Example 5]
logP (pH 2)/ m.p. [° C.] (logP part): 4.18/213
kill [2]: 100%
kill [3]: 100%
% Activity/Kill (Lucilia cuprina larvae; Concentration 20 ppm): 0%
% Activity/Kill (Lucilia cuprina larvae; Concentration 100 ppm): 100%

O=C(Nc1ccc(OC(F)(F)F)cc1)N1CCC(n2cc(Cl)cn2)C(c2cccc(F)c2)=N1 (stereo not shown) [Example 6]
% Activity/Kill [1, 4]: 0%
% Activity/Kill [1, 5]: 50%
% Activity/Kill [1, 6]: 99%
logP (pH 2)/ m.p. [° C.] (logP part): 4.43/148
kill [2]: 100%
kill [3]: 100%
% Activity/Kill (Lucilia cuprina larvae; Concentration 20 ppm): 0%
% Activity/Kill (Lucilia cuprina larvae; Concentration 100 ppm): 100%

O=C(Nc1ccc(Cl)cc1)N1CCC(n2cc(Cl)cn2)C(c2cccc(Cl)c2)=N1 (stereo not shown) [Example 8]
logP (pH 2)/ m.p. [° C.] (logP part): 4.49/203
kill [2]: 100%
kill [3]: 100%

O=C(Nc1ccc(Cl)cc1)N1CCC(n2cc(Cl)cn2)C(c2cccc(OC(F)(F)F)c2)=N1 (stereo not shown) [Example 10]
logP (pH 2)/ m.p. [° C.] (logP part): 4.73/158
kill [2]: 100%
kill [3]: 100%

O=C(Nc1ccc(Cl)cc1)N1CCC(n2cc(Cl)cn2)C(c2cccc(Br)c2)=N1 (stereo not shown) [Example 11]
logP (pH 2)/ m.p. [° C.] (logP part): 4.58/198
kill [2]: 100%
kill [3]: 100%

O=C(Nc1ccc(OC(F)(F)F)cc1)N1CCC(n2cc(Cl)cn2)C(c2cccc(Br)c2)=N1 (stereo not shown) [Example 12]
logP (pH 2)/ m.p. [° C.] (logP part): 4.82/197
kill [2]: 100%
kill [3]: 100%

N#Cc1cccc(C2=NN(C(=O)Nc3ccc(C(F)(F)F)cc3)CCC2n2cc(Cl)cn2)c1 (stereo not shown) [Example 16]
logP (pH 2)/ m.p. [° C.] (logP part): 4.03/229
kill [2]: 100%
kill [3]: 100%

N#Cc1cnn(C2CCN(C(=O)Nc3ccc(Cl)cc3)N=C2c2cccc(Cl)c2)c1 (stereo not shown) [Example 18]
logP (pH 2)/ m.p. [° C.] (logP part): 3.90/228

N#Cc1cnn(C2CCN(C(=O)Nc3ccc(OC(F)(F)F)cc3)N=C2c2cccc(Cl)c2)c1 (stereo not shown) [Example 19]
logP (pH 2)/ m.p. [° C.] (logP part): 4.15/186

N#Cc1ccc(NC(=O)N2CCC(n3cc(Cl)cn3)C(c3cccc(Cl)c3)=N2)cc1 (stereo not shown) [Example 20]
logP (pH 2)/ m.p. [° C.] (logP part): 3.77

N#Cc1cnn(C2CCN(C(=O)Nc3ccc(SC(F)(F)F)cc3)N=C2c2cccc(Cl)c2)c1 (stereo not shown) [Example 21]
logP (pH 2)/ m.p. [° C.] (logP part): 4.53/194

N#Cc1cnn(C2CCN(C(=O)Nc3ccc(Cl)cc3)N=C2c2cccc(Br)c2)c1 (stereo not shown) [Example 22]
logP (pH 2)/ m.p. [° C.] (logP part): 3.96/213

O=C(Nc1ccc(SC(F)(F)F)cc1)N1CCC(n2cc(Cl)cn2)C(c2cccc(C(F)(F)F)c2)=N1 (stereo not shown) [Example 23]
% Activity/Kill [1, 5]: 0%
% Activity/Kill [1, 6]: 90%
logP (pH 2)/ m.p. [° C.] (logP part): 5.21/188
% Activity/Kill (Lucilia cuprina larvae; Concentration 20 ppm): 0%
% Activity/Kill (Lucilia cuprina larvae; Concentration 100 ppm): 100%

N#Cc1cnn(C2CCN(C(=O)Nc3ccc(SC(F)(F)F)cc3)N=C2c2cccc(Br)c2)c1 (stereo not shown) [Example 24]
logP (pH 2)/ m.p. [° C.] (logP part): 4.64/206

N#Cc1cnn(C2CCN(C(=O)Nc3ccc(OC(F)(F)F)cc3)N=C2c2cccc(Br)c2)c1 (stereo not shown) [Example 25]
logP (pH 2)/ m.p. [° C.] (logP part): 4.24/192

N#Cc1cccc(C2=NN(C(=O)Nc3ccc(SC(F)(F)F)cc3)CCC2n2cc(C#N)cn2)c1 (stereo not shown) [Example 26]
logP (pH 2)/ m.p. [° C.] (logP part): 3.94/242

N#Cc1cnn(C2CCN(C(=O)Nc3ccc(C(F)(F)F)cc3)N=C2c2cccc(Br)c2)c1 (stereo not shown) [Example 27]
logP (pH 2)/ m.p. [° C.] (logP part): 4.18/244

N#Cc1cnn(C2CCN(C(=O)Nc3ccc(Br)cc3)N=C2c2cccc(Cl)c2)c1 (stereo not shown) [Example 28]
logP (pH 2)/ m.p. [° C.] (logP part): 4.03

N#Cc1cccc(C2=NN(C(=O)Nc3ccc(OC(F)(F)F)cc3)CCC2n2cc(C#N)cn2)c1 (stereo not shown) [Example 29]
logP (pH 2)/ m.p. [° C.] (logP part): 3.62/239

O=C(c1cccc(F)c1)C(Br)CCCl (stereo not shown) [Example V-2]
logP (pH 2): 3.47

O=C(c1cccc(OC(F)(F)F)c1)C(Br)CCCl (stereo not shown) [Example V-3]
logP (pH 2): 4.19

O=C(c1cccc(Br)c1)C(Br)CCCl (stereo not shown) [Example V-4]
logP (pH 2): 4.02

FC(F)(F)c1cccc(C2=NNCCC2n2cc(Cl)cn2)c1 (stereo not shown) [II-2]
logP (pH 2): 3.09

Fc1cccc(C2=NNCCC2n2cc(Cl)cn2)c1 (stereo not shown) [II-3]
logP (pH 2): 2.59

Clc1cccc(C2=NNCCC2n2cc(Cl)cn2)c1 (stereo not shown) [II-4]
logP (pH 2): 2.93

FC(F)(F)Oc1cccc(C2=NNCCC2n2cc(Cl)cn2)c1 (stereo not shown) [II-5]
logP (pH 2): 3.32

Clc1cnn(C2CCNN=C2c2cccc(Br)c2)c1 (stereo not shown) [II-6]
logP (pH 2): 3.03

N#Cc1cnn(C2CCNN=C2c2cccc(Cl)c2)c1 (stereo not shown) [II-7]
logP (pH 2): 2.40

N#Cc1cnn(C2CCNN=C2c2cccc(Br)c2)c1 (stereo not shown) [II-8]
logP (pH 2): 2.49

N#Cc1cccc(C2=NNCCC2n2cc(C#N)cn2)c1 (stereo not shown) [II-9]
logP (pH 2): 1.83

O=C(c1cccc(C(F)(F)F)c1)C(CCCl)n1cc(Cl)cn1 (stereo not shown) [IV-2]
logP (pH 2): 3.84

O=C(c1cccc(F)c1)C(CCCl)n1cc(Cl)cn1 (stereo not shown) [IV-3]
logP (pH 2): 3.31

O=C(c1cccc(Cl)c1)C(CCCl)n1cc(Cl)cn1 (stereo not shown) [IV-4]
logP (pH 2): 3.68

O=C(c1cccc(OC(F)(F)F)c1)C(CCCl)n1cc(Cl)cn1 (stereo not shown) [IV-5]
logP (pH 2): 3.99

O=C(c1cccc(Br)c1)C(CCCl)n1cc(Cl)cn1 (stereo not shown) [IV-6]
logP (pH 2): 3.78

N#Cc1cnn(C(CCCl)C(=O)c2cccc(Cl)c2)c1 (stereo not shown) [IV-7]
logP (pH 2): 3.06

N#Cc1cnn(C(CCCl)C(=O)c2cccc(Br)c2)c1 (stereo not shown) [IV-8]
logP (pH 2): 3.13

N#Cc1cccc(C(=O)C(CCCl)n2cc(C#N)cn2)c1 (stereo not shown) [IV-9]
logP (pH 2): 2.41

O=C(CCCCl)c1cccc(OC(F)(F)F)c1 [VI-2]
logP (pH 2): 3.71

O=C(CCCCl)c1cccc(Br)c1 [VI-3]
logP (pH 2): 3.50

O=C1OCCC1C(=O)c1cccc(OC(F)(F)F)c1 (stereo not shown) [VIIa-4]
logP (pH 2): 2.59

O=C1OCCC1C(=O)c1cccc(Br)c1 (stereo not shown) [Vlla-5]
logP (pH 2): 2.22
